Assay results taken from patent US20240368156A1, “2-AZABICYCLO[2.2.1]HEPTANE KRAS INHIBITORS” (INCYTE CORPORATION, priority 2023, published 2024).

Assays:
[1] = target: KRAS G12V (Homo sapiens, UniProt P01116, G12V); test: GDP-GTP exchange assay (bodipy-GDP/GppNHp, SOS1), KRAS G12V; assay type: biochemical; details: 2.5 nM bodipy-loaded KRAS G12V, 3 h incubation after adding GppNHp-SOS1; for certain compounds the most potent isomer is quoted; read-out: KRAS_G12V exchange assay IC50
Description: (§1) The inhibitor potency of the exemplified compounds was determined in a fluorescence based guanine nucleotide exchange assay, which measures the exchange of bodipy-GDP (fluorescently labeled GDP) for GppNHp (Non-hydrolyzable GTP analog) to generate the active state of KRAS in the presence of SOS1 (guanine nucleotide exchange factor). Inhibitors were serially diluted in DMSO and a volume of 0.1 μL was transferred to the wells of a black low volume 384-well plate. 5 µL/well volume of bodipy-loaded KRAS G12D diluted to 2.5 nM in assay buffer (25 mM Hepes pH 7.5, 50 mM NaCl, 10 mM MgCl2 and 0.01% Brij-35) was added to the plate and pre-incubated with inhibitor for 4 h at r.t. Appropriate controls (enzyme with no inhibitor or with a G12D inhibitor) were included on the plate. The exchange was initiated by the addition of a 5 μL/well volume containing 1 mM GppNHp and 300 nM SOS1 in assay buffer. The 10 μL/well reaction concentration of the bodipy-loaded KRAS G12D, GppNHp, and SOS1 were 2.5 nM, 500 μM, and 150 nM, respectively. The reaction plates were incubated at r.t. for 2 h, a time estimated for complete GDP-GTP exchange in the absence of inhibitor. For the KRAS G12V mutant, similar guanine nucleotide exchange assays were used with 2.5 nM as final concentration for the bodipy loaded KRAS proteins and 3 h incubation after adding GppNHp-SOS1 mixture. A cyclic peptide described to selectively bind G12D mutant (Sakamoto et al., BBRC 484.3 (2017), 605-611) or internal compounds with confirmed binding were used as positive controls in the assay plates. Fluorescence intensities were measured on a PheraStar plate reader instrument (BMG Labtech) with excitation at 485 nm and emission at 520 nm.
(§2) Either GraphPad prism or Genedata Screener SmartFit was used to analyze the data. The IC50 values were derived by fitting the data to a four parameter logistic equation producing a sigmoidal dose-response curve with a variable Hill coefficient.
(§3) The symbol “†” indicates IC50≤100 nM, “††” indicates IC50>100 nM but ≤1 μM; and “†††” indicates IC50 is >1 μM but ≤5 μM, “††††” indicates IC50 is >5 µM but ≤10 μM. “NA” indicates IC50 not available.

[2] = target: KRAS G12D (Homo sapiens, UniProt P01116, G12D); test: GDP-GTP exchange assay (bodipy-GDP/GppNHp, SOS1), KRAS G12D; assay type: biochemical; details: 2.5 nM bodipy-loaded KRAS G12D, 4 h pre-incubation, 2 h reaction with GppNHp and SOS1; for certain compounds the most potent isomer is quoted; read-out: KRAS_G12D exchange assay IC50
Chain of KRAS G12D (P01116 1-188 isoform P01116-2 G12D): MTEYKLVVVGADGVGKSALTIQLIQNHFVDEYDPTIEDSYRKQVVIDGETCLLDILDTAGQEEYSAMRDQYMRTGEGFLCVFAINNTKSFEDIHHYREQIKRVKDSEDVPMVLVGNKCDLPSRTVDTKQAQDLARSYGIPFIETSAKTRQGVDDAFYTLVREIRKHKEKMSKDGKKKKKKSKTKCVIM
Description: as §1, §2, §3

Chain of KRAS G12V (P01116 1-188 isoform P01116-2 G12V): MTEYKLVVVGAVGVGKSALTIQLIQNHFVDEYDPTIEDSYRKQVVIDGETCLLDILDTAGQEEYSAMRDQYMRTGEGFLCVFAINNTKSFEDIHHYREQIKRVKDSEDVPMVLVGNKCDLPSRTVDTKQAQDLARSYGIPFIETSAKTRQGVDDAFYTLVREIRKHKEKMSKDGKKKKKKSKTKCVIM

| Compound | IC50 [1] [nM] | IC50 [2] [nM] |
| --- | --- | --- |
| Cc1nc2c(F)c(-c3cccc(Cl)c3Cl)c(CCC#N)cc2c2c1cc([C@H]1[C@H]3CC[C@H](C3)N1C(=O)C1CC1)n2C1C2CNC1C2 (stereo partly drawn) [Example 25, 3-(1-(2-azabicyclo[2.1.1]hexan-5-yl)-2-((1R,3R,4S)-2-(cyclopropanecarbonyl)-2-azabicyclo[2.2.1]heptan-3-yl)-7-(2,3-dichlorophenyl)-6-fluoro-4-methyl-1H-pyrrolo[3,2-c]quinolin-8-yl)propanenitrile] | 5000 to 10000 | 1000 to 5000 |
| Cc1nc2c(F)c(-c3cccc(Cl)c3Cl)c(CCC#N)cc2c2c1cc([C@H]1[C@H]3C[C@H](C[C@@H]3C(F)F)N1C(=O)C1CC1)n2[C@H]1[C@H]2CN[C@@H]1C2 (atropisomer, axis not shown; (Ra)) [Example 9, 3-((Ra)-1-((1R,4R,5S)-2-Azabicyclo[2.1.1]hexan-5-yl)-2-((1R,3R,4S,5S)-2-(cyclopropanecarbonyl)-5-(difluoromethyl)-2-azabicyclo[2.2.1]heptan-3-yl)-7-(2,3-dichlorophenyl)-6-fluoro-4-methyl-1H-pyrrolo[3,2-c]quinolin-8-yl)propanenitrile] | ≤ 100 | ≤ 100 |
| CO[C@H]1C[C@H]2C[C@@H]1[C@H](c1cc3c(C)nc4c(F)c(-c5cccc(Cl)c5Cl)c(CCC#N)cc4c3n1[C@H]1[C@H]3CN[C@@H]1C3)N2C(=O)C1CC1 (atropisomer, axis not shown; (Ra)) [Example 1, 3-((Ra)-1-((1R,4R,5S)-2-Azabicyclo[2.1.1]hexan-5-yl)-2-((1R,3R,4R,5S)-2-(cyclopropanecarbonyl)-5-methoxy-2-azabicyclo[2.2.1]heptan-3-yl)-7-(2,3-dichlorophenyl)-6-fluoro-4-methyl-1H-pyrrolo[3,2-c]quinolin-8-yl)propanenitrile] |  | ≤ 100 |
| Cc1nc2c(F)c(-c3cccc(Cl)c3Cl)c(CCC#N)cc2c2c1cc([C@H]1[C@H]3C[C@H](C[C@@H]3O)N1C(=O)C1CC1)n2C1[C@H]2CN[C@@H]1C2 (stereo partly drawn) [Example 16, 3-(1-((1R,4R)-2-azabicyclo[2.1.1]hexan-5-yl)-2-((1R,3R,4R,5S)-2-(cyclopropanecarbonyl)-5-hydroxy-2-azabicyclo[2.2.1]heptan-3-yl)-7-(2,3-dichlorophenyl)-6-fluoro-4-methyl-1H-pyrrolo[3,2-c]quinolin-8-yl)propanenitrile] | ≤ 100 | ≤ 100 |
| Cc1nc2c(F)c(-c3cccc(Cl)c3Cl)c(CCC#N)cc2c2c1cc([C@H]1[C@H]3C[C@H](C[C@@H]3Oc3ccncc3)N1C(=O)C1CC1)n2[C@H]1[C@H]2CN[C@@H]1C2 (atropisomer, axis not shown) [Example 31, 3-((R)-1-((1R,4R,5S)-2-azabicyclo[2.1.1]hexan-5-yl)-2-((1R,3R,4R,5S)-2-(cyclopropanecarbonyl)-5-(pyridin-4-yloxy)-2-azabicyclo[2.2.1]heptan-3-yl)-7-(2,3-dichlorophenyl)-6-fluoro-4-methyl-1H-pyrrolo[3,2-c]quinolin-8-yl)propanenitrile] | ≤ 100 | ≤ 100 |
| Cc1nc2c(F)c(-c3cccc(Cl)c3Cl)c(CCC#N)cc2c2c1cc([C@H]1[C@H]3C[C@H](C[C@@H]3OC(F)(F)F)N1C(=O)C1(F)CC1)n2[C@H]1[C@H]2CN[C@@H]1C2 (atropisomer, axis not shown; (Ra)) [Example 42, 3-((Ra)-1-((1R,4R,5S)-2-azabicyclo[2.1.1]hexan-5-yl)-7-(2,3-dichlorophenyl)-6-fluoro-2-((1R,3R,4R,5S)-2-(1-fluorocyclopropane-1-carbonyl)-5-(trifluoromethoxy)-2-azabicyclo[2.2.1]heptan-3-yl)-4-methyl-1H-pyrrolo[3,2-c]quinolin-8-yl)propanenitrile] | ≤ 100 | ≤ 100 |
| COC(=O)N1[C@@H]2C[C@@H]([C@@H](OC(F)F)C2)[C@@H]1c1cc2c(C)nc3c(F)c(-c4cccc(Cl)c4Cl)c(CCC#N)cc3c2n1[C@H]1[C@H]2CN[C@@H]1C2 (atropisomer, axis not shown; (Ra)) [Example 39, Methyl (1R,3R,4R,5S)-3-((Ra)-1-((1R,4R,5S)-2-azabicyclo[2.1.1]hexan-5-yl)-8-(2-cyanoethyl)-7-(2,3-dichlorophenyl)-6-fluoro-4-methyl-1H-pyrrolo[3,2-c]quinolin-2-yl)-5-(difluoromethoxy)-2-azabicyclo[2.2.1]heptane-2-carboxylate] | ≤ 100 | ≤ 100 |
| Cc1nc2c(F)c(-c3cccc(Cl)c3Cl)c(CCC#N)cc2c2c1cc([C@H]1[C@H]3C[C@H](C[C@H]3O)N1C(=O)C1CC1)n2C1[C@H]2CN[C@@H]1C2 (stereo partly drawn) [Example 21, 3-(1-((1R,4R)-2-azabicyclo[2.1.1]hexan-5-yl)-2-((1R,3R,4R,5R)-2-(cyclopropanecarbonyl)-5-hydroxy-2-azabicyclo[2.2.1]heptan-3-yl)-7-(2,3-dichlorophenyl)-6-fluoro-4-methyl-1H-pyrrolo[3,2-c]quinolin-8-yl)propanenitrile] | 100 to 1000 | 100 to 1000 |
| C[C@@H](O)c1nc2c(F)c(-c3cccc(Cl)c3Cl)c(CCC#N)cc2c2c1cc([C@H]1[C@H]3C[C@H](C[C@@H]3OC3CC3)N1C(=O)C1(F)CC1)n2[C@H]1[C@H]2CN[C@@H]1C2 (single isomer, unassigned) [Example 38] | ≤ 100 | ≤ 100 |
| Cc1nc2c(F)c(-c3cccc(Cl)c3Cl)c(CCC#N)cc2c2c1cc([C@H]1[C@H]3C[C@H](C[C@@H]3OCc3ccccc3)N1C(=O)C1CC1)n2[C@H]1[C@H]2CN[C@@H]1C2 (atropisomer, axis not shown; (Ra)) [Example 6, 3-((Ra)-2-((1R,3R,4R,5S)-5-(Benzyloxy)-2-(cyclopropanecarbonyl)-2-azabicyclo[2.2.1]heptan-3-yl)-1-((1R,4R,5S)-2-azabicyclo[2.1.1]hexan-5-yl)-7-(2,3-dichlorophenyl)-6-fluoro-4-methyl-1H-pyrrolo[3,2-c]quinolin-8-yl)propanenitrile] | ≤ 100 | ≤ 100 |
| Cc1nc2c(F)c(-c3cccc(Cl)c3Cl)c(CCC#N)cc2c2c1cc([C@H]1[C@H]3C[C@H](C[C@@H]3OC(F)F)N1C(=O)C1CC1)n2[C@H]1[C@H]2CN[C@@H]1C2 (atropisomer, axis not shown; (Ra)) [Example 7, 3-((Ra)-1-((1R,4R,5S)-2-Azabicyclo[2.1.1]hexan-5-yl)-2-((1R,3R,4R,5S)-2-(cyclopropanecarbonyl)-5-(difluoromethoxy)-2-azabicyclo[2.2.1]heptan-3-yl)-7-(2,3-dichlorophenyl)-6-fluoro-4-methyl-1H-pyrrolo[3,2-c]quinolin-8-yl)propanenitrile] | ≤ 100 | ≤ 100 |
| CNC(=O)c1ccc(-c2nc3c(F)c(-c4cccc(Cl)c4Cl)c(CCC#N)cc3c3c2cc([C@H]2[C@@H]4CC[C@@H](C4)N2C(=O)C2CC2)n3[C@H]2[C@H]3CN[C@@H]2C3)cc1F [Example 14, 4-(1-((1R,4R,5S)-2-azabicyclo[2.1.1]hexan-5-yl)-8-(2-cyanoethyl)-2-((1S,3R,4R)-2-(cyclopropanecarbonyl)-2-azabicyclo[2.2.1]heptan-3-yl)-7-(2,3-dichlorophenyl)-6-fluoro-1H-pyrrolo[3,2-c]quinolin-4-yl)-2-fluoro-N-methylbenzamide] | ≤ 100 | ≤ 100 |
| Cc1nc2c(F)c(-c3cccc(Cl)c3Cl)c(CCC#N)cc2c2c1cc([C@H]1[C@H]3C[C@H](C[C@@H]3OC(F)F)N1C(=O)C1(F)CC1)n2[C@H]1[C@H]2CN[C@@H]1C2 [Example 35, 3-(1-((1R,4R,5S)-2-Azabicyclo[2.1.1]hexan-5-yl)-7-(2,3-dichlorophenyl)-2-((1R,3R,4R,5S)-5-(difluoromethoxy)-2-(1-fluorocyclopropane-1-carbonyl)-2-azabicyclo[2.2.1]heptan-3-yl)-6-fluoro-4-methyl-1H-pyrrolo[3,2-c]quinolin-8-yl)propanenitrile] |  | ≤ 100 |
